Patent publication US11352371B2, “Thienopyrimidine derivatives as ACC inhibitors and uses thereof” (Gilead Sciences, Inc., priority 2019, dated 2022)

How the values were obtained:
[1] = Rat liver/plasma ratio determination; format: in vivo, male Sprague-Dawley (SD) rats; settings: male SD rats, single oral dose 5 mg/kg or 10 mg/kg; for L/P Ratio (2 h): liver to plasma concentration 2 hours after dosing; for L/P Ratio (24 h): liver to plasma concentration 24 hours after dosing
Experimental: Liver to plasma (L/P) ratios of certain example compounds were determined in male Sprague-Dawley (SD) rats 2 hours and 24 hours after their administration.
The in vivo phases of the rat L/P ratio determinations for example compounds were conducted at Covance Laboratories (Madison, Wis.) or Charles River Laboratories (Worcester, Wash.). Animals were housed and handled in accordance with the Guide for the Care and Use of Laboratory Animals, Institute of Laboratory Animal Resources. The protocols were reviewed and approved by Institutional Animal Care and Use Committees (IACUC). Male Sprague-Dawley (SD) rats weighing approximately 300 g were fasted overnight prior to dosing and up to 4 hours after dosing. Each example compound was dosed at a single dose at 5 mg/kg or 10 mg/kg orally by gavage to male SD rats (n=3 rats/group). The aqueous formulation contained ethyl alcohol and polyethylene glycol 300. Approximately 100 μL plasma and 0.5 g liver samples were collected from each animal either 2 hours or 24 hours after dosing. The liver samples were homogenized by hard tissue homogenizer probes (Omni International, Kennesaw, Ga.) with 4× extraction buffer. For LC-MS/MS analysis, plasma and liver samples were prepared through protein precipitation extraction and analyzed on a Scitex API 5500 or 6500 LC-MS/MS instrument (Applied Biosystems, Foster City, Calif.). Analyte was eluted on a 1.7 μm 50×2.1 mm Acquity UPLC BEH C18 column (Waters, Milford, Mass.) using mobile phase containing 0.1% formic acid and a linear gradient from 55% to 95% acetonitrile at a flow rate of 800 μL/min. A liver/plasma ratio for each compound was calculated using the liver and plasma concentrations at the corresponding time point (2 hours or 24 hours). Noncompartmental pharmacokinetic parameters were calculated using Phoenix 32 (Pharsight Corporation, Mountain View, Calif.).
To assess the liver loading potential of the compounds, rat liver/plasma ratios (Rat L/P Ratio) values were determined for example compounds and are listed below in Table 1 for 2 hour and 24 hour timepoints (Rat L/P Ratio (2h/24h)).

HepG2 cells = experiment: In vitro De Novo Lipogenesis (DNL) assay, 13C-acetate incorporation into palmitic acid; format: cell-based; settings: Homo sapiens, 1 hour preincubation, 24 hours with 10 mM 13C-labeled acetate
Experimental: De Novo Lipogenesis (DNL) was measured in vitro in HepG2 cells by quantifying the incorporation of ^13C-labeled acetate into palmitic acid.
HepG2 cells were plated in growth medium (DMEM (Corning cat #15-018-CM) supplemented with 10% FBS (HyClone cat #SH30071-03), and 1× penicillin, streptomycin, glutamine (Corning cat #30-009-CI)) at 10,000 cells/well in a 384-well cell culture-treated plate (Greiner cat #781091). The cells were then incubated overnight at 37° C., 5% CO2. The next day, the cells were washed twice with sterile DPBS (Corning cat #21-031-CM) and the culture medium was changed to fresh growth medium. The compounds of interest were dosed to cells, followed by a 1 hour incubation at 37° C., 5% CO2. ^13C-labeled acetate (Sigma-Aldrich cat #279315-1G) was added to the culture medium at a concentration of 10 mM and the cells were incubated for 24 hours at 37° C., 5% CO2.
In order to analyze the lipid content of the HepG2 cells, the culture medium was removed and the cells were lysed by adding 30 μL of 0.1 M NaOH. After 5 minutes of incubation at room temperature, 15 μL of cell lysate was transferred to a 384-well deep-well plate (Sigma-Aldrich cat #BR701355-48EA) containing 15 μL of 7.3% KOH in ethanol and mixed. This plate was sealed and incubated at 70° C. for 4 hours to hydrolyze the lipids to free fatty acids. 100 μL of acetonitrile was then added and the plate was spun at 3,700 g for 20 minutes to separate the organic and aqueous phases. 50 μL from the top (organic) phase was transferred to a new 384-well plate (NUNC cat #264573) and the samples were analyzed by mass spectrometry using a RapidFire coupled to a QTOF mass spectrometer. The sum of the area under curve (AUC) for palmitate containing 3 to 7 ^13C was normalized with the AUC of oleate and plotted against compound concentration to determine the potency of ACC inhibitors. […]

SMILES	L/P Ratio (2 h) [1]	L/P Ratio (24 h) [1]	EC50 (HepG2 cells) [nM]
COc1ccccc1[C@H](Cn1c(=O)n(C2(C(=O)NS(=O)(=O)C3(C)CC3)CC2)c(=O)c2c(C)c(-c3ncco3)sc21)O[C@@H]1C[C@H]2CC[C@@H](C1)O2 [Example 12, 1-(1-((R)-2-(((1R,3s,5S)-8-oxabicyclo[3.2.1]octan-3-yl)oxy)-2-(2-methoxyphenyl)ethyl)-5-methyl-6-(oxazol-2-yl)-2,4-dioxo-1,4-dihydrothieno[2,3-d]pyrimidin-3(2H)-yl)-N-((1-methylcyclopropyl)sulfonyl)cyclopropane-1-carboxamide]	145	136	1.7
Cc1c(-c2ncco2)sc2c1c(=O)n(C(C)(C)C(=O)NS(=O)(=O)C1(C)CC1)c(=O)n2C[C@H](O[C@@H]1C[C@H]2CC[C@@H](C1)O2)c1cc(F)ccc1OC(F)F [Example 6, 2-(1-((R)-2-(((1R,3s,5S)-8-oxabicyclo[3.2.1]octan-3-yl)oxy)-2-(2-(difluoromethoxy)-5-fluorophenyl)ethyl)-5-methyl-6-(oxazol-2-yl)-2,4-dioxo-1,4-dihydrothieno[2,3-d]pyrimidin-3(2H)-yl)-2-methyl-N-((1-methylcyclopropyl)sulfonyl)propanamide]	442	1106	4.5
COc1ccc(F)cc1[C@H](Cn1c(=O)n(C(C)(C)C(=O)NS(=O)(=O)C2(C)CC2)c(=O)c2c(C)c(-n3nccn3)sc21)O[C@@H]1C[C@H]2CC[C@@H](C1)O2 [Example 20, 2-(1-((R)-2-(((1R,3s,5S)-8-oxabicyclo[3.2.1]octan-3-yl)oxy)-2-(5-fluoro-2-methoxyphenyl)ethyl)-5-methyl-2,4-dioxo-6-(2H-1,2,3-triazol-2-yl)-1,4-dihydrothieno[2,3-d]pyrimidin-3(2H)-yl)-2-methyl-N-((1-methylcyclopropyl)sulfonyl)propanamide]	2515	2914	0.3
Cc1c(-n2nccn2)sc2c1c(=O)n(C1(C(=O)NS(=O)(=O)C3(C)CC3)CC1)c(=O)n2C[C@H](O[C@H]1C[C@H]2CC[C@@H](C1)O2)c1ccccc1OC(F)F [Example 23, 1-(1-((R)-2-(((1R,3r,5S)-8-oxabicyclo[3.2.1]octan-3-yl)oxy)-2-(2-(difluoromethoxy)phenyl)ethyl)-5-methyl-2,4-dioxo-6-(2H-1,2,3-triazol-2-yl)-1,4-dihydrothieno[2,3-d]pyrimidin-3(2H)-yl)-N-((1-methylcyclopropyl)sulfonyl)cyclopropane-1-carboxamide]			268
